Data published in patent publication US11634450B2, “DOT1L degraders and uses thereof” (DANA-FARBER CANCER INSTITUTE, INC., priority 2018, dated 2023).

Assays:
DOT1L [1] = target: T1, DOT1L (Mus musculus, UniProt Q6XZL8); assay: Degradation in mouse MLL-AF9 PA cell line by immunoblot; format: cell-based; details: FIGS. 10A-10B, mouse MLL-AF9 PA cells, up to 10 μM, 24, 48 and 72 hours
T1 construct: endogenous in cells; host or cells: mouse MLL-AF9 PA leukemia cells
Description: FIGS. 10A-10B show mouse MLL-AF9 PA (Mixed-lineage leukemia (MLL)-AF9 leukemia) cells treated with DOT1L-1 at the indicated concentrations for the indicated amount of time. The cells were immunoblotted with DOT1L (D402T), actin, and H3K79me2.
Mouse MLL-AF9 PA (Mixed-lineage leukemia (MLL)-AF9 leukemia) cells were treated with DOT1L-1 at 0 μM, 0.3 μM, 1 μM, 3.3 μM, and 10 μM for 24 hours, 48 hours, and 72 hours. Cell lysates were loaded on SDS-PAGE, then immunoblotted with DOT1L (D402T), actin, H3K79me2, and total H3. A second treatment was performed with DOT1L-1 concentrations of 0 μM, 0.01 μM, 0.1 μM, 0.3 μM, 1 μM, 3.3 μM, and 10 μM, at 24 hours and 48 hours.

DOT1L [2] = target: T2, DOT1L (Homo sapiens, UniProt Q8TEK3); assay: Degradation in Molm13 PA cell line by immunoblot; format: cell-based; set-up: endogenous in cells; details: FIGS. 9A-9B, 0.3 μM to 10 μM, 24, 48 and 72 hours
T2 sequence (Q8TEK3 whole entry): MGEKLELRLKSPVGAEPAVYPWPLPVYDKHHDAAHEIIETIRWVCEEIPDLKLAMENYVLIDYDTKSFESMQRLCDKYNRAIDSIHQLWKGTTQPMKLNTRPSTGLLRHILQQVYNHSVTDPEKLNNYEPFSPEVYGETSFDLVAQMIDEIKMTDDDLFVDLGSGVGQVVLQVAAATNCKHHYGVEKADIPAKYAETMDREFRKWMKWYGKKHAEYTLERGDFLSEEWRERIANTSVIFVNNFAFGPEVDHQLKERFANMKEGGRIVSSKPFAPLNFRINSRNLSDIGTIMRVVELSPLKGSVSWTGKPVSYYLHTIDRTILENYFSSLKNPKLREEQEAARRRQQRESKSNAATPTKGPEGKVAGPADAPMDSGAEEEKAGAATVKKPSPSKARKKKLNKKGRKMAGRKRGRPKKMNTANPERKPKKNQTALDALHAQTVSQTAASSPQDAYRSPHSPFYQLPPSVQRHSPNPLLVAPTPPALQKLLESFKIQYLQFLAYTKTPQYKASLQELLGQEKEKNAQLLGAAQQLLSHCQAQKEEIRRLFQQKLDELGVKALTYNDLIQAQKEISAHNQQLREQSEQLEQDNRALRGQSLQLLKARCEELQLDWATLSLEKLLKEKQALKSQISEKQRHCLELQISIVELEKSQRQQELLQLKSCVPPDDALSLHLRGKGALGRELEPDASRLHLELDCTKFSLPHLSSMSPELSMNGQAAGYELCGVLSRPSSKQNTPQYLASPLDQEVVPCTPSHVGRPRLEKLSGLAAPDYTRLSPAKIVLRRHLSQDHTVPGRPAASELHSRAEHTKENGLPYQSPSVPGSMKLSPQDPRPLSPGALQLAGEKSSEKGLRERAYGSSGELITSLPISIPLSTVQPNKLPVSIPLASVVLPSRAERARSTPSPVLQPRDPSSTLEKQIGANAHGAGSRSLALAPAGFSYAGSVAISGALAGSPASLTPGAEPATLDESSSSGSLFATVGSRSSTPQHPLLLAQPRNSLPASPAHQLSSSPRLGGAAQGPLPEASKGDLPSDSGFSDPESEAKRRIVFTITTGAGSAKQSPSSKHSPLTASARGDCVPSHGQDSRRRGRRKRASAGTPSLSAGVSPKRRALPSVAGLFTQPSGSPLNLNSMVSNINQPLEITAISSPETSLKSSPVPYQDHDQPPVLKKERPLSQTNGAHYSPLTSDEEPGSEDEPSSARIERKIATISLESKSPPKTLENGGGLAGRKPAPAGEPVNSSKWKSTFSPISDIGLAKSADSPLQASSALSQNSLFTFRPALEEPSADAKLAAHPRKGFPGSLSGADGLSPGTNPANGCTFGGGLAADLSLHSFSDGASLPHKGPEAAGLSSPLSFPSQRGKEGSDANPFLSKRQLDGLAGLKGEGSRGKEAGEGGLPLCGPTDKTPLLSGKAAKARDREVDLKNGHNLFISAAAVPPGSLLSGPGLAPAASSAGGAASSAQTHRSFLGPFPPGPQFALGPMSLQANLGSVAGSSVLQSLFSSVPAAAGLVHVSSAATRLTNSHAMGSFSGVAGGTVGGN
Description: FIGS. 9A-9B show acute myeloid leukemia cells (Molm13 PA) treated with DOT1L-1 at the indicated concentrations for the indicated amount of time. The cells were immunoblotted with DOT1L (D402T), actin, and H3K79me2.
The cells were immunoblotted with DOT1L (D402T), actin, and H3K79me2.
Molm13PA (acute myeloid leukemia) cells were treated with dDOT1L-1 at 0 μM, 0.3 μM, 1 μM, 3.3 μM, and 10 μM for 24 hours and 48 hours. Cell lysates were loaded on SDS-PAGE, then immunoblotted with DOT1L (D402T), actin, H3K79me2, total H3. Repeat treatment was performed at 24 hours, 48 hours and 72 hours at the same concentrations of dDOT1L-1. […] (see FIGS. 9A-9B).
Molm13PA (acute myeloid leukemia) cells were treated with DOT1L-4 at 0 μM, 0.3 μM, 1 μM, 3.3 μM, and 10 μM for 24 hours, 48 hours, and 72 hours. Cell lysates were loaded on SDS-PAGE, then immunoblotted with DOT1L (D402T), actin, H3K79me2, total H3.

CRBN with DOT1L = CRBN with DOT1L (Homo sapiens, UniProt Q8TEK3+Q96SW2); assay: Biochemical dimerization assay of CRBN with DOT1L induced by the degraders; details: FIG. 20, biochemical assay setting
Sequence of CRBN with DOT1L (Q8TEK3 whole entry): as above
Sequence of CRBN with DOT1L (Q96SW2 whole entry): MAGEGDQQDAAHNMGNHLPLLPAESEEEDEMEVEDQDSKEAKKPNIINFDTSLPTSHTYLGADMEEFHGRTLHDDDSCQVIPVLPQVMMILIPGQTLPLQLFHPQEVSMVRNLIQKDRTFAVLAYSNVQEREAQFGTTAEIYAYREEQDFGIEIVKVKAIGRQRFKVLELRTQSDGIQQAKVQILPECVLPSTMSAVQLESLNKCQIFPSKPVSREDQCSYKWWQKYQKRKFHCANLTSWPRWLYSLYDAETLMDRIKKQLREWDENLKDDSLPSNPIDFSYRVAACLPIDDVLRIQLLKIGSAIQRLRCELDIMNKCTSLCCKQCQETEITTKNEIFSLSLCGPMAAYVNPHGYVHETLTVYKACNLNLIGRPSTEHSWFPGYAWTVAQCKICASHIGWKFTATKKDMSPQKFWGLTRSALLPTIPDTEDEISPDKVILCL
Excerpt: This new assay checks if the exemplary compounds can dimerize CRBN and DOT1L in a biochemical assay setting.
A biochemical assay was completed to determine the dimerization of CRBN with DOT1L induced by the degraders. This assay checks if the exemplary compounds can dimerize CRBN and DOT1L in a biochemical assay setting.

[3] = target: T3, DOT1L tagged GFP and mcherry (Homo sapiens, UniProt Q8TEK3+Q96SW2); assay: DOT1L degradation eGFP-mCherry reporting cell line assay; format: cell-based; details: FIG. 26, eGFP-mCherry reporting cell line, 24 hour treatment
T3 construct: eGFP; mCherry; expressed in transfected cells
T3 sequence (Q8TEK3 whole entry): as the sequence (Q8TEK3 whole entry) above
T3 sequence (Q96SW2 whole entry): as the sequence (Q96SW2 whole entry) above
T3 sequence (Q16531 whole entry partner): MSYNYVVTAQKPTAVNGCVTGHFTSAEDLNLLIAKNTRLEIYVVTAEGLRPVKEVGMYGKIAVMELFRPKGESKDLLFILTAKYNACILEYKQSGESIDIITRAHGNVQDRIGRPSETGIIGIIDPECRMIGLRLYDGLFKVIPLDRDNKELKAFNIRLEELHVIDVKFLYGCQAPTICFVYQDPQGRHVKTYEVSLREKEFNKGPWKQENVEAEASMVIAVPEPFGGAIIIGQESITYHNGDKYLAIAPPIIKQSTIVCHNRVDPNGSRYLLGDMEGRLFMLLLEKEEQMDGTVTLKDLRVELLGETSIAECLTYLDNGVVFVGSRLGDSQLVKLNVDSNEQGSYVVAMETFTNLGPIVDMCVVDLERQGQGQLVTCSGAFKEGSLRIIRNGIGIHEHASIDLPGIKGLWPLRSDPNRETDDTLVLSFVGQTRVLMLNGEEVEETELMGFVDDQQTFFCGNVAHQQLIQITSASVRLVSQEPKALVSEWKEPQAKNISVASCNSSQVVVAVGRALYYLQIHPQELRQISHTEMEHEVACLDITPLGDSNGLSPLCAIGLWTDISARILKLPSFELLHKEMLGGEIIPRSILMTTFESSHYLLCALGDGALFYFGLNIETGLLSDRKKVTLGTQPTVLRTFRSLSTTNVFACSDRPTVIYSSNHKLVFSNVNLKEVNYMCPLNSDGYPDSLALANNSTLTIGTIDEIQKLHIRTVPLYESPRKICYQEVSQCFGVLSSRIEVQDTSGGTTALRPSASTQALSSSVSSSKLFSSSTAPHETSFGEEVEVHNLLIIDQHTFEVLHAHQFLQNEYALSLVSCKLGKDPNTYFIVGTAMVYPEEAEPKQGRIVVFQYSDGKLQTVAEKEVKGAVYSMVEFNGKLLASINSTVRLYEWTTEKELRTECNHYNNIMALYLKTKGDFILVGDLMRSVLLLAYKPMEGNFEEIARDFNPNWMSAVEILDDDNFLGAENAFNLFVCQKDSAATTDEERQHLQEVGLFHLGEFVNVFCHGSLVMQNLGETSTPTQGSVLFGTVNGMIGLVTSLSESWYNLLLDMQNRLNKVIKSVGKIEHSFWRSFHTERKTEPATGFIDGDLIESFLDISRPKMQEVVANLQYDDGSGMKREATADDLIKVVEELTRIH
Description: This can directly report the targeted protein degradation. (See Sievers et al., Science, 2018).
The tested compounds include exemplary DOT1L degrader compounds JQ-DD2, JQ-DD3, JQ-DD4, JQ-DD5, JQ-DD6, JQ-DD7, JQ-DD8, negative control EPZ5676, and positive controls thalidomide and lenalidomide. The eGFP-mCherry reporting cell line can report the degradation well in 24 hours.
A new DOT1L degradation reporting cell line was developed with DOT1L tagged GFP and mcherry. This reporting cell line can directly report the targeted protein degradation. (See Sievers et al., Science, 2018). DOT1L degradation using eGFP-mCherry reporting cell line assays were conducted for exemplary DOT1L degrader compounds, and control compounds at different concentrations [M], measured in [M] per mP. The tested compounds include exemplary DOT1L degrader compounds JQ-DD2, JQ-DD3, JQ-DD4, JQ-DD5, JQ-DD6, JQ-DD7, JQ-DD8, and controls EPZ5676, Thalidomide, and Lenalidomide.

DOT1L [4] = target: T2, DOT1L; assay: DOT1L degradation in EOL1 cells by immunoblot; format: cell-based; set-up: endogenous in cells; host or cells: EOL1; details: for DOT1L degradation: immunoblot
Description: With JQ-DD6, the degradation happened at 16 hours and maximum degradation occurs at 24 hours.
(§1) EOL1 (acute myeloid (eosinophilic) leukemia cell line) cells were treated with exemplary DOT1L degrader compounds JQ-DD6, JQ-DD7, and JQ-DD8 at 0.5 μM, 1 μM, 3 μM, 5 μM, and 10 μM for 24 hours. Cell lysates were loaded on SDS-PAGE, then immunoblotted with DOT1L, Myc, H3K79me2, and actin. (see FIG. 21).
EOL1 cells were treated with exemplary DOT1L degrader compounds JQ-DD2, JQ-DD4, and JQ-DD6, JQ-DD7, and JQ-DD8 at 1 μM and […] for 2, 4, 8, 16, and 24 hours. Cell lysates were immunoblotted with DOT1L, Myc, H3K79me2, and actin at the indicated concentrations for the indicated times. (see FIG. 23).
(§2) EOL1 cells were treated with exemplary DOT1L degrader compounds JQ-DD6, JQ-DD7, and JQ-DD8 at 1 μM and […] for 24 and 48 hours. Cell lysates were immunoblotted with DOT1L, Myc, H3K79me2, and actin at the indicated concentrations for the indicated times. (see FIG. 24).

EOL1 cells = assay: Toxicity seen in EOL1 cells treated for immunoblot; format: cell-based; details: at 24 hours
Description: as §1, §2

[5] = FIG. 21, EOL1 cells, 0.5 μM, 1 μM, 3 μM, 5 μM, and 10 μM for 24 hours
[6] = FIG. 23, EOL1 cells, time course 2, 4, 8, 16, and 24 hours, 1 μM and 10M
[7] = FIG. 24, EOL1 cells, 1 μM and 10M for 24 and 48 hours

T1 sequence (Q6XZL8 1-1540): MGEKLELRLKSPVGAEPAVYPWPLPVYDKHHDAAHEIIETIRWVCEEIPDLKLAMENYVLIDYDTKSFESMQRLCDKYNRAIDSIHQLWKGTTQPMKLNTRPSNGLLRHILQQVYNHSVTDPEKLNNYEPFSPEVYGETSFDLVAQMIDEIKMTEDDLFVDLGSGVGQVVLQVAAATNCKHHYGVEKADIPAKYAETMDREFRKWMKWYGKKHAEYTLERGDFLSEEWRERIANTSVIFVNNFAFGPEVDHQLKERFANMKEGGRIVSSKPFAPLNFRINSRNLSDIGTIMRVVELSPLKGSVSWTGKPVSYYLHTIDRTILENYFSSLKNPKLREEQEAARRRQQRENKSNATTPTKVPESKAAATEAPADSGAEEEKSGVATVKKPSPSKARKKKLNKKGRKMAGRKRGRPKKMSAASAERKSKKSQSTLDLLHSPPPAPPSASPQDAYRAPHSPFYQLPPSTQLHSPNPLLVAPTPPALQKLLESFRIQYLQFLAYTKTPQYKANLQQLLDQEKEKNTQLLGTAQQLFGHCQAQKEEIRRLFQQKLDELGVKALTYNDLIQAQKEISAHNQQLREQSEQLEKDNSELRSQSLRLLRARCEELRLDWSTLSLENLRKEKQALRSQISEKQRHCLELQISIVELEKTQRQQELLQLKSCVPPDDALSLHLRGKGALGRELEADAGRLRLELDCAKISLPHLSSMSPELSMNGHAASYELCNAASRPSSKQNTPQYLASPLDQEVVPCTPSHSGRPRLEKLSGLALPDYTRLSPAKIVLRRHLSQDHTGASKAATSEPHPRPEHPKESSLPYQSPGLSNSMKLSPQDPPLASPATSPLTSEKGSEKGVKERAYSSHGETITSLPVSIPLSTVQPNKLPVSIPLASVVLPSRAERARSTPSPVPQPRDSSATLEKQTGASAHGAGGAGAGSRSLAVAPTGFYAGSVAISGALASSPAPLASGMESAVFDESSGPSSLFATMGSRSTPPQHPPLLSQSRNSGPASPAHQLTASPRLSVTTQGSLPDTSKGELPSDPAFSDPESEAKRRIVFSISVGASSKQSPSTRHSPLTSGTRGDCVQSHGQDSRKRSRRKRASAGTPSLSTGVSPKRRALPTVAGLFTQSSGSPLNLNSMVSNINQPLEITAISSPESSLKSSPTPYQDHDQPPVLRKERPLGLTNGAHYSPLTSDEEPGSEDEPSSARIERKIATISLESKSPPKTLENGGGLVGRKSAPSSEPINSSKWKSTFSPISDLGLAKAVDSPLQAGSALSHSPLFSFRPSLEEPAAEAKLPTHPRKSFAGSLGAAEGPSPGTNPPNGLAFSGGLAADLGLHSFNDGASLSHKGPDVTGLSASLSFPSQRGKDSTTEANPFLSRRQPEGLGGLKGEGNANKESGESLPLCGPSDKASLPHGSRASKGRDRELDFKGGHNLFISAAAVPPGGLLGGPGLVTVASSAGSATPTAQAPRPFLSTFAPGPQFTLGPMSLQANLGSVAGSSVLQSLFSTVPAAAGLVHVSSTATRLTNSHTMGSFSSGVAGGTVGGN

SMILES: CC(C)N(C[C@H]1O[C@@H](n2cnc3c(NCCCCNC(=O)C=COCCOCCOCCNc4cccc5c4C(=O)N(C4CCC(=O)NC4=O)C5=O)ncnc32)[C@H](O)[C@@H]1O)C1CC(CCc2nc3cc(C(C)(C)C)ccc3[nH]2)C1 (stereo partly drawn) [DOT1L-1, N-(4-((9-((2R,3R,4S,5R)-5-(((3-(2-(5-(tert-butyl)-1H-benzo[d]imidazol-2-yl)ethyl)cyclobutyl)(isopropyl)amino)methyl)-3,4-dihydroxytetrahydrofuran-2-yl)-9H-purin-6-yl)amino)butyl)-3-(2-(2-(2-((2-(2,6-dioxopiperidin-3-yl)-1,3-dioxoisoindolin-4-yl)amino)ethoxy)ethoxy)ethoxy)propenamide]
- degradation in blots (DOT1L, H3K79me2) (DOT1L [1]): degrades Mouse MLL-AF9 PA (Mixed-lineage leukemia (MLL)-AF9 leukemia) cells
- effect on Molm13 PA cells in blots (DOT1L, H3K79me2) (DOT1L [2]): inhibits acute myeloid leukemia cells (Molm13 PA)

SMILES: CC(C)N(C[C@H]1O[C@@H](n2cnc3c(NCCCCNC(=O)CCCCCCCCCCCNc4cccc5c4C(=O)N(C4CCC(=O)NC4=O)C5=O)ncnc32)C(O)C1O)C1CC(CCc2nc3cc(C(C)(C)C)ccc3[nH]2)C1 (stereo partly drawn) [JQ-DD6]
- dimerization of CRBN with DOT1L (signal) (CRBN with DOT1L): strongest signal
- degradation of DOT1L (reporter signal) [3]: strongest signal for degradation of DOT1L
- DOT1L degradation (DOT1L [4]; [5]): solid degradation
- time at which DOT1L degradation happened (DOT1L [4]; [6]): 16 h
- time of maximum DOT1L degradation (DOT1L [4]; [6]): 24 h
- DOT1L degradation (DOT1L [4]; [7]): shows degradation
- activity in the cell (DOT1L [4]; general remark in legend of FIG. 20, cell not named there): works very well in the cell

SMILES: CC(C)N(C[C@H]1O[C@@H](n2cnc3c(NCCCCNC(=O)CCCCCCCCCNc4cccc5c4C(=O)N(C4CCC(=O)NC4=O)C5=O)ncnc32)C(O)C1O)C1CC(CCc2nc3cc(C(C)(C)C)ccc3[nH]2)C1 (stereo partly drawn) [JQ-DD7]
- DOT1L degradation (DOT1L [4]; [5]): show degradation
- DOT1L degradation (DOT1L [4]; [7]): shows degradation

SMILES: CC(C)N(CCCNC(=O)Nc1ccc(C(C)(C)C)cc1)C[C@H]1O[C@@H](n2cnc3c(NCCCCNC(=O)CCCCCCCCCCCNc4cccc5c4C(=O)N(C4CCC(=O)NC4=O)C5=O)ncnc32)C(O)C1O (stereo partly drawn) [JQ-DD8]
- toxicity in EOL1 (EOL1 cells; FIG. 21, EOL1 cells): potential toxicity
- toxicity in EOL1 (EOL1 cells; FIG. 24, EOL1 cells): potential toxicity
- DOT1L degradation (DOT1L [4]; [5]): show degradation
- DOT1L degradation (DOT1L [4]; [7]): shows degradation
